Test results: patent publication US10968203B2, “Pyrimidinyl-pyridyloxy-naphthyl compounds and methods of treating IRE1-related diseases and disorders” (Genentech, Inc., priority 2017, dated 2021)
pIC50: −log10 of the molar value. Counter-ions that a name gives are not always drawn.

Each compound was assayed on XBP1s-luc 293 LUC (assay: cellular PD assay, XBP1s-LUC reporter (Example 903)). Details: Table 1; read-out: XBP1s-luc 293 LUC (IC50).
Assay type: cell-based
How it was run: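 Cellular IRE1α pathway activity was quantified from the luciferase signal of an XBP1-Luc reporter, where the luciferase fusion is in frame and expressed only from the spliced XBP1 transcript.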
Compound `Cc1ccc2c(NC(=O)[C@H]3C[C@@H]3F)cccc2c1Oc1ncccc1-c1ccnc(N[C@H]2CCCNC2)n1` [Example 235, (1R,2S)-2-Fluoro-N-(6-methyl-5-((3-(2-(((S)-piperidin-3-yl)amino)pyrimidin-4-yl)pyridin-2-yl)oxy)naphthalen-1-yl)cyclopropane-1-carboxamide] has a pIC50 of 6.84.
Compound `Cc1ccc2c(Oc3ncccc3-c3ccnc(N[C@H]4CCCNC4)n3)c(C)ccc2c1NC(=O)C1CC1` [Example 284, (S)—N-(2,6-Dimethyl-5-((3-(2-(piperidin-3-ylamino)pyrimidin-4-yl)pyridin-2-yl)oxy)Naphthalen-1-yl)cyclopropanecarboxamide] has a pIC50 of 7.01.
`Cc1ccc2c(NCC[C@H]3CC3(F)F)cccc2c1Oc1ncccc1-c1ccnc(N[C@H]2CCCNC2)n1` (single isomer, unassigned) [Example 292] was tested, and the pIC50 was 6.53.
`Cc1ccc2c(NC(=O)[C@@H]3C[C@@H]3F)cccc2c1Oc1ncccc1-c1ccnc(N[C@H]2CCCNC2)n1` (relative stereo) [Example 212, (1S,2S)-2-Fluoro-N-[6-methyl-5-[[3-[2-[[(3S)-3-piperidyl]amino]pyrimidin-4-yl]-2-pyridyl]oxy]-1-naphthyl]cyclopropanecarboxamide] gave a pIC50 of 6.91.
In the case of `Cc1ccc2c(NS(=O)(=O)Cc3ccccc3)c(F)ccc2c1Oc1ncccc1-c1ccnc(N[C@@H]2CNC[C@H](C)C2)n1` [Example 378, N-(2-Fluoro-6-methyl-5-((3-(2-(((3S,5R)-5-methylpiperidin-3-yl)amino)pyrimidin-4-yl)pyridin-2-yl)oxy)naphthalen-1-yl)-1-phenylmethanesulfonamide], the pIC50 was 8.85.
In the case of `CCCS(=O)(=O)Nc1c(F)ccc2c(Oc3ncccc3-c3ccnc(N[C@@H]4CNC[C@@H](F)C4)n3)c(C)ccc12` (single isomer, unassigned) [Example 328], the pIC50 was 7.82.
In the case of `CCCS(=O)(=O)Nc1c(F)ccc2c(Oc3ncccc3-c3ccnc(N[C@@H]4CNC[C@H](C)C4)n3)c(C)ccc12` [Example 367, N-(2-Fluoro-6-methyl-5-((3-(2-(((3S,5R)-5-methylpiperidin-3-yl)amino)pyrimidin-4-yl)pyridin-2-yl)oxy)naphthalen-1-yl)propane-1-sulfonamide], the pIC50 was 7.84.
Work on `Cc1ccc2c(NC[C@@H]3CCOC3)cccc2c1Oc1ncccc1-c1ccnc(N[C@H]2CCCNC2)n1` (single isomer, unassigned) [Example 351] yielded a pIC50 of 6.30.
`Cc1ccc2c(N3CCC4(CCCCC4)C3=O)cccc2c1Oc1ncccc1-c1ccnc(N[C@H]2CCCNC2)n1` [Example 308, (S)-2-(6-Methyl-5-((3-(2-(piperidin-3-ylamino)pyrimidin-4-yl)pyridin-2-yl)oxy)naphthalen-1-yl)-2-azaspiro[4.5]decan-1-one] was tested, and the pIC50 was 6.68.
With `COCCS(=O)(=O)Nc1cccc2c(Oc3ncccc3-c3ccnc(N[C@H]4CCCNC4)n3)c(C)ccc12` [Example 137, (S)-2-Methoxy-N-(6-methyl-5-((3-(2-(piperidin-3-ylamino)pyrimidin-4-yl)pyridin-2-yl)oxy)naphthalen-1-yl)ethanesulfonamide] the pIC50 was 6.32.
`Cc1ccc2c(NS(=O)(=O)CC3CCCO3)cccc2c1Oc1ncccc1-c1ccnc(N[C@H]2CCCNC2)n1` (stereo partly drawn) [Example 141, N-(6-Methyl-5-((3-(2-((S)-piperidin-3-ylamino)pyrimidin-4-yl)pyridin-2-yl)oxy)naphthalen-1-yl)-1-(tetrahydrofuran-2-yl)methanesulfonamide] showed a pIC50 of 6.34.
`Cc1ccc2c(NS(=O)(=O)c3cccnc3)cccc2c1Oc1ncccc1-c1ccnc(N[C@H]2CCCNC2)n1` [Example 149, (S)—N-(6-Methyl-5-((3-(2-(piperidin-3-ylamino)pyrimidin-4-yl)pyridin-2-yl)oxy)naphthalen-1-yl)pyridine-3-sulfonamide] was tested, and the pIC50 was 6.31.
Work on `CCCS(=O)(=O)Nc1cccc2c(Oc3ncccc3-c3ccnc(N[C@H]4CCCNC4)n3)c(C)ccc12` [Example 104, (S)—N-(6-Methyl-5-(3-(2-(piperidin-3-ylamino)pyrimidin-4-yl)pyridin-2-yloxy)naphthalen-1-yl)propane-1-sulfonamide hydrochloride] yielded a pIC50 of 6.88.
For `C=CS(=O)(=O)Nc1cccc2c(Oc3ncccc3-c3ccnc(N[C@H]4CCCNC4)n3)c(C)ccc12` [Example 147, (S)—N-(6-Methyl-5-((3-(2-(piperidin-3-ylamino)pyrimidin-4-yl)pyridin-2-yl)oxy)naphthalen-1-yl)ethenesulfonamide], the pIC50 was 6.86.
Work on `Cc1ccc2c(NC(=O)[C@@H]3CCC(C)C3)cccc2c1Oc1ncccc1-c1ccnc(N[C@H]2CCCNC2)n1` (single isomer, unassigned) [Example 277] yielded a pIC50 of 6.77.
`Cc1cccc(S(=O)(=O)Nc2cccc3c(Oc4ncccc4-c4ccnc(N[C@H]5CCCNC5)n4)c(C)ccc23)n1` [Example 171, (S)-6-Methyl-N-(6-methyl-5-((3-(2-(piperidin-3-ylamino)pyrimidin-4-yl)pyridin-2-yl)oxy)naphthalen-1-yl)pyridine-2-sulfonamide] was tested, and the pIC50 was 6.51.
Work on `Cc1ccc2c(NC(C)c3cscn3)cccc2c1Oc1ncccc1-c1ccnc(N[C@H]2CCCNC2)n1` (single isomer, unassigned) [Example 295] yielded a pIC50 of 6.68.
In the case of `Cc1ccc2c(NS(=O)(=O)CC(F)(F)F)cccc2c1Oc1ncccc1-c1ccnc(N[C@H]2CCCNC2)n1` [Example 122, (S)-2,2,2-Trifluoro-N-(6-methyl-5-((3-(2-(piperidin-3-ylamino)pyrimidin-4-yl)pyridin-2-yl)oxy)naphthalen-1-yl)ethane-1-sulfonamide hydrochloride], the pIC50 was 6.98.
For `CCCCS(=O)(=O)Nc1cccc2c(Oc3ncccc3-c3ccnc(N[C@H]4CCCNC4)n3)c(C)ccc12` [Example 136, (S)—N-(6-Methyl-5-((3-(2-(piperidin-3-ylamino)pyrimidin-4-yl)pyridin-2-yl)oxy)naphthalen-1-yl) butane-1-sulfonamide], the pIC50 was 6.53.
`Cc1ccc2c(NS(=O)(=O)[C@H](C)c3ccccc3)cccc2c1Oc1ncccc1-c1ccnc(N[C@H]2CCCNC2)n1` [Example 215, (R)—N-(6-methyl-5-((3-(2-((S)-piperidin-3-ylamino)pyrimidin-4-yl)pyridin-2-yl)oxy)naphthalen-1-yl)-1-phenylethanesulfonamide] gave a pIC50 of 6.68.

Same assay, conditions: Table 2; read-out: XBP1s-luc 293 LUC (IC50)
With `Cc1ccc2c(NS(=O)(=O)N(C)C3CC3)c(F)ccc2c1Oc1ncccc1-c1ccnc(N[C@H]2CCCNC2)n1` [Example 440, 4-[2-[[5-[[Cyclopropyl(methyl)sulfamoyl]amino]-6-fluoro-2-methyl-1-naphthyl]oxy]-3-pyridyl]-2-[[(3S)-3-piperidyl]amino]pyrimidine hydrochloride] the pIC50 was 7.59.
In the case of `Cc1ccc2c(NS(=O)(=O)Cc3ccc(C#N)cc3)c(F)ccc2c1Oc1ncccc1-c1ccnc(N[C@H]2CCCNC2)n1` [Example 426, (S)-1-(4-Cyanophenyl)-N-(2-fluoro-6-methyl-5-((3-(2-(piperidin-3-ylamino)pyrimidin-4-yl)pyridin-2-yl)oxy)naphthalen-1-yl)methanesulfonamide hydrochloride], the pIC50 was 8.30.
Work on `Cc1ccc2c(NS(=O)(=O)CCC(F)(F)F)cccc2c1Oc1ncccc1-c1ccnc(N[C@@H]2CNC[C@H](C)C2)n1` [Example 481, 3,3,3-Trifluoro-N-(6-methyl-5-((3-(2-(((3S,5R)-5-methylpiperidin-3-yl)amino)pyrimidin-4-yl)pyridin-2-yl)oxy)naphthalen-1-yl)propane-1-sulfonamide] yielded a pIC50 of 7.15.
`Cc1ccc2c(NS(=O)(=O)CCC(C)(F)F)c(F)ccc2c1Oc1ncccc1-c1ccnc(N[C@@H]2CNC[C@@H](F)C2)n1` (single isomer, unassigned) [Example 498, hydrochloride] was tested, and the pIC50 was 7.48.
With `COc1cccc(CS(=O)(=O)Nc2c(F)ccc3c(Oc4ncccc4-c4ccnc(N[C@H]5CCCNC5)n4)c(C)ccc23)c1` [Example 429, (S)—N-(2-Fluoro-6-methyl-5-((3-(2-(piperidin-3-ylamino)pyrimidin-4-yl)pyridin-2-yl)oxy)naphthalen-1-yl)-1-(3-methoxyphenyl)methanesulfonamide hydrochloride] the pIC50 was 8.30.
For `Cc1ccc2c(N[C@H]3CCC[C@@H]3O)cccc2c1Oc1ncccc1-c1ccnc(N[C@H]2CCCNC2)n1` (single isomer, unassigned) [Example 396, hydrochloride], the pIC50 was 6.57.
In the case of `Cc1ccc2c(NS(=O)(=O)Cc3noc4ccccc34)c(F)ccc2c1Oc1ncccc1-c1ccnc(N[C@H]2CCCNC2)n1` [Example 443, (S)-1-(Benzo[d]isoxazol-3-yl)-N-(2-fluoro-6-methyl-5-((3-(2-(piperidin-3-ylamino)pyrimidin-4-yl)pyridin-2-yl)oxy)naphthalen-1-yl)methanesulfonamide hydrochloride], the pIC50 was 8.10.
With `CC/C(F)=C/S(=O)(=O)Nc1c(F)ccc2c(Oc3ncccc3-c3ccnc(N[C@H]4CCCNC4)n3)c(C)ccc12` [Example 457, (S,Z)-2-Fluoro-N-(2-fluoro-6-methyl-5-((3-(2-(piperidin-3-ylamino)pyrimidin-4-yl)pyridin-2-yl)oxy)naphthalen-1-yl)but-1-ene-1-sulfonamide hydrochloride] the pIC50 was 6.98.
Compound `Cc1ccc2c(NC(=O)C3CC34CC4)c(F)ccc2c1Oc1ncccc1-c1ccnc(N[C@H]2CCCNC2)n1` (stereo partly drawn) [Example 465, N-(2-Fluoro-6-methyl-5-((3-(2-(((S)-piperidin-3-yl)amino)pyrimidin-4-yl)pyridin-2-yl)oxy)naphthalen-1-yl)spiro[2.2]pentane-1-carboxamide] has a pIC50 of 7.24.
In the case of `Cc1ccc2c(NS(=O)(=O)Cc3ccn(C)n3)c(F)ccc2c1Oc1ncccc1-c1ccnc(N[C@H]2CCCNC2)n1` [Example 449, N-[2-Fluoro-6-methyl-5-[[3-[2-[[(3S)-3-piperidyl]amino]pyrimidin-4-yl]-2-pyridyl]oxy]-1-naphthyl]-1-(1-methylpyrazol-3-yl)methanesulfonamide hydrochloride], the pIC50 was 7.60.
`Cc1ccc2c(NS(=O)(=O)Cc3nn(C)cc3Cl)c(F)ccc2c1Oc1ncccc1-c1ccnc(N[C@H]2CCCNC2)n1` [Example 448, 1-(4-Chloro-1-methyl-pyrazol-3-yl)-N-[2-fluoro-6-methyl-5-[[3-[2-[[(3S)-3-piperidyl]amino]pyrimidin-4-yl]-2-pyridyl]oxy]-1-naphthyl]methanesulfonamide hydrochloride] showed a pIC50 of 7.72.
